Measured values from US11986471B2, “Compounds and methods of use” (Tango Therapeutics, Inc., priority 2018, dated 2024).

How the values were obtained:
PRMT5 [1] = molecular target: T1, PRMT5 (Homo sapiens, UniProt O14744); test: PRMT5 IC50 assay in the presence of SAM as cofactor; type: biochemical
T1 construct: purchased Viva (custom protein)
Outline: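 Cofactor-free, SAM and MTA formats; IC50 μM; Ki = IC50/1.5 for SAM, IC50/13.5 for MTA.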

PRMT5 [2] = molecular target: T1, PRMT5; test: PRMT5 IC50 assay with no cofactor; type: biochemical
Outline: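 Potency against PRMT5 is compared across cofactor states, where IC50 equals Ki×1.5 with SAM present and Ki×13.5 with MTA present.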

PRMT5 [3] = molecular target: T1, PRMT5; test: PRMT5 IC50 assay in the presence of MTA as cofactor; type: biochemical; conditions: for IC50: PRMT5, MTA as cofactor
Outline: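 Three cofactor conditions tested for PRMT5 inhibition: none, MTA and SAM, each giving an IC50. For conversion to Ki, the MTA-condition IC50 is divided by 13.5 and the SAM-condition IC50 by 1.5, and the two Ki values are expressed as a SAM/MTA ratio.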

HAP1 MTAP-intact = test: SDMA in-cell western assay, HAP1 MTAP-intact cell line; type: cell-based; conditions: Homo sapiens
Outline: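 HAP1 isogenic pair: endogenous MTAP vs MTAP-null. Readout SDMA by in-cell western; IC50 per line. Ratio ≥3 fold = MTAP-selective.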

HAP1 MTAP-deleted = test: SDMA in-cell western assay, HAP1 MTAP-deleted cell line; type: cell-based; conditions: for IC50: Homo sapiens, HAP1 MTAP-deleted cell line; for MTAP Intact/Deleted Ratio: IC50 ratio HAP1 MTAP-intact / HAP1 MTAP-deleted
Outline: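 IC50 from SDMA in-cell western; HAP1 line lacking MTAP (null), paired isogenically with MTAP-intact HAP1 expressing endogenous MTAP.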

[4] = ratio between Ki in the presence of SAM and Ki in the presence of MTA
[5] = ratio between the Ki in the presence of SAM and the Ki in the presence of MTA

T1 sequence (O14744 whole entry): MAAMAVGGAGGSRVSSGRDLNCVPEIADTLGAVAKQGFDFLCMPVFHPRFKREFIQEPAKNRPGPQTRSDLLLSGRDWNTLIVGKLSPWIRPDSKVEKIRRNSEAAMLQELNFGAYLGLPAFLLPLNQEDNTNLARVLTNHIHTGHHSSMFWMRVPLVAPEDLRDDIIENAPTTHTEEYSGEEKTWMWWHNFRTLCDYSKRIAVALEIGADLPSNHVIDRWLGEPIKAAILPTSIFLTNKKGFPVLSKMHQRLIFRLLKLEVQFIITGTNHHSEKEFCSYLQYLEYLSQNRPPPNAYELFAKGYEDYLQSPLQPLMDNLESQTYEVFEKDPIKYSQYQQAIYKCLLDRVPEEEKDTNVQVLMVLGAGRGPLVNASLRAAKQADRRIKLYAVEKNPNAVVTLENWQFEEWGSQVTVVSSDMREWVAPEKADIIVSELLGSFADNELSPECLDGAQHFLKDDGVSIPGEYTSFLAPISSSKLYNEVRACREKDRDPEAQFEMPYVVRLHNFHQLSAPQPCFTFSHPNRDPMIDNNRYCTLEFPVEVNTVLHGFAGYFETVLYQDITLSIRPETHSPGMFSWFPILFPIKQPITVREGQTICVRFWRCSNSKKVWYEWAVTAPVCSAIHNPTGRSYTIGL
T1 sequence (Q9BQA1 whole entry partner): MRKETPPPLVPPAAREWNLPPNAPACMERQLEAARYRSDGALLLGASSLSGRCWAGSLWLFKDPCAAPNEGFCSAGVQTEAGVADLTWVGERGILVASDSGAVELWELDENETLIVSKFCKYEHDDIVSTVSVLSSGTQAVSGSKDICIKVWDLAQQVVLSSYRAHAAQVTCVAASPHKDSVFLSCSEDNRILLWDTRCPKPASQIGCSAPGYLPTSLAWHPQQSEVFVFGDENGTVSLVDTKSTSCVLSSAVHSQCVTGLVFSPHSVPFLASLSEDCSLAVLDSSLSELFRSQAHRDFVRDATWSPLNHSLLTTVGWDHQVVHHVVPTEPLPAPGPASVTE

Row | SMILES | IC50 (PRMT5 [1]) [nM] | IC50 (PRMT5 [2]; read-out: No Co-factor IC50) [nM] | IC50 (PRMT5 [3]) [nM] | SAM/MTA Ratio (PRMT5 [3]; [4]) | IC50 (HAP1 MTAP-intact) [nM] | IC50 (HAP1 MTAP-deleted) [nM] | MTAP Intact/Deleted Ratio (HAP1 MTAP-deleted) | IC50 (PRMT5 [2]) [nM] | SAM/MTA Ratio (PRMT5 [3]; [5])
1 | CC(=O)N1CCN(c2nc(NC3COC3)cc(C(=O)NC[C@H](O)CN3CCc4c(ccc(OCc5cnco5)c4Cl)C3)n2)CC1 [Compound 300, (S)-2-(4-acetylpiperazin-1-yl)-N-(3-(5-chloro-6-(oxazol-5-ylmethoxy)-3,4-dihydroisoquinolin-2(1H)-yl)-2-hydroxypropyl)-6-(oxetan-3-ylamino)pyrimidine-4-carboxamide] | 50 to 500 | 500 to 5000 | 50 to 500 | A (a Ki ratio greater than or equal to 10 fold between the Ki in the presence of SAM and the Ki in the presence of MTA) | ≥ 10000 | ≥ 10000 | C* (an IC50 ratio of less than 3 fold between the IC50 in the HAP1 MTAP-intact cell line and the HAP1 MTAP-deleted cell line) |  | 
2 | Cc1ncoc1COc1ccc2c(c1)CCN(C[C@@H](O)CNC(=O)c1cc(Nc3cccnc3)nc(N3CCCCC3)c1)C2 [Compound 601] | 50 to 500 |  | < 50 |  | < 1000 | < 1000 | B* (an IC50 ratio greater than or equal to 3 fold but lower than 10 fold between the IC50 in the HAP1 MTAP-intact cell line and the HAP1 MTAP-deleted cell line) | 500 to 5000 | A (a Ki ratio greater than or equal to 10 fold between the Ki in the presence of SAM and the Ki in the presence of MTA)
3 | CC(=O)N1CC(Nc2cc(C(=O)NC[C@H](O)CN3CCc4cc(OCc5cnco5)ccc4C3)ccn2)C1 [Compound 451] | 50 to 500 |  | 50 to 500 |  | ≥ 10000 | ≥ 10000 | C* (an IC50 ratio of less than 3 fold between the IC50 in the HAP1 MTAP-intact cell line and the HAP1 MTAP-deleted cell line) | 500 to 5000 | A (a Ki ratio greater than or equal to 10 fold between the Ki in the presence of SAM and the Ki in the presence of MTA)
4 | Cc1ncoc1COc1ccc2c(c1)CCN(C[C@@H](O)CNC(=O)c1cc(NC3COC3)nc(N3CCN(C(=O)C4CC4)CC3)n1)C2 [Compound 400, 2-(4-cyclopropanecarbonylpiperazin-1-yl)-N-[(2S)-2-hydroxy-3-{6-[(4-methyl-1,3-oxazol-5-yl)methoxy]-1,2,3,4-tetrahydroisoquinolin-2-yl}propyl]-6-[(oxetan-3-yl)amino]pyrimidine-4-carboxamide] | 50 to 500 | 500 to 5000 | 50 to 500 | A (a Ki ratio greater than or equal to 10 fold between the Ki in the presence of SAM and the Ki in the presence of MTA) | 1000 to 10000 | < 1000 | B* (an IC50 ratio greater than or equal to 3 fold but lower than 10 fold between the IC50 in the HAP1 MTAP-intact cell line and the HAP1 MTAP-deleted cell line) |  | 
5 | CO[C@H]1CC[C@H](Nc2cc(C(=O)NC[C@H](O)CN3CCc4c(ccc(OCc5cnco5)c4C)C3)ncn2)CC1 [Compound 572, N-[(2S)-2-hydroxy-3-{5-methyl-6-[(1,3-oxazol-5-yl)methoxy]-1,2,3,4-tetrahydroisoquinolin-2-yl}propyl]-6-{[(1r,4r)-4-methoxycyclohexyl]amino}pyrimidine-4-carboxamide] | 500 to 5000 |  | 50 to 500 |  | ≥ 10000 | ≥ 10000 | C* (an IC50 ratio of less than 3 fold between the IC50 in the HAP1 MTAP-intact cell line and the HAP1 MTAP-deleted cell line) | ≥ 5000 | A (a Ki ratio greater than or equal to 10 fold between the Ki in the presence of SAM and the Ki in the presence of MTA)
6 | Cc1c(OCc2cnco2)ccc2c1CCN(C[C@@H](O)CNC(=O)c1ccc3c(c1)CCN(C(=O)c1ccc(Br)cc1)C3)C2 [Compound 546] | 50 to 500 |  | 50 to 500 |  | ≥ 10000 | ≥ 10000 | C* (an IC50 ratio of less than 3 fold between the IC50 in the HAP1 MTAP-intact cell line and the HAP1 MTAP-deleted cell line) | 500 to 5000 | 
7 | CCCC(=O)N1CCC(Nc2cc(C(=O)NC[C@H](O)CN3CCc4c(ccc(OCc5cnco5)c4Cl)C3)ccn2)CC1 [Compound 442, (S)-2-((1-butyrylpiperidin-4-yl)amino)-N-(3-(5-chloro-6-(oxazol-5-ylmethoxy)-3,4-dihydroisoquinolin-2(1H)-yl)-2-hydroxypropyl)isonicotinamide] | 50 to 500 |  | 50 to 500 |  | ≥ 10000 | < 1000 | A* (an IC50 ratio greater than or equal to 10 fold between the IC50 in the HAP1 MTAP-intact cell line and the HAP1 MTAP-deleted cell line) | 500 to 5000 | A (a Ki ratio greater than or equal to 10 fold between the Ki in the presence of SAM and the Ki in the presence of MTA)
8 | CC(=O)N1CCC(Nc2cc(C(=O)NC[C@H](O)CN3CCc4cc(OCc5conc5C)ccc4C3)ncn2)CC1 [Compound 233, (S)-6-((1-acetylpiperidin-4-yl)amino)-N-(2-hydroxy-3-(6-((3-methylisoxazol-4-yl)methoxy)-3,4-dihydroisoquinolin-2(1H)-yl)propyl)pyrimidine-4-carboxamide] | 50 to 500 | ≥ 5000 | 50 to 500 | A (a Ki ratio greater than or equal to 10 fold between the Ki in the presence of SAM and the Ki in the presence of MTA) | ≥ 10000 | 1000 to 10000 | C* (an IC50 ratio of less than 3 fold between the IC50 in the HAP1 MTAP-intact cell line and the HAP1 MTAP-deleted cell line) |  | 
9 | O=C(NC[C@H](O)CN1CCc2c(ccc(OCc3cnco3)c2Br)C1)c1cc(NC2CCC2)ncn1 [Compound 361, (S)—N-(3-(5-bromo-6-(oxazol-5-ylmethoxy)-3,4-dihydroisoquinolin-2(1H)-yl)-2-hydroxypropyl)-6-(cyclobutylamino)pyrimidine-4-carboxamide] | 500 to 5000 | ≥ 5000 | 500 to 5000 | A (a Ki ratio greater than or equal to 10 fold between the Ki in the presence of SAM and the Ki in the presence of MTA) | ≥ 10000 | ≥ 10000 | C* (an IC50 ratio of less than 3 fold between the IC50 in the HAP1 MTAP-intact cell line and the HAP1 MTAP-deleted cell line) |  | 
10 | CC(=O)N1CCC(Nc2cc(C(=O)NC[C@H](O)CN3CCc4c(ccc(OCc5cnn[nH]5)c4Cl)C3)ncn2)CC1 [Compound 343, 6-[(1-acetyl-4-piperidyl)amino]-N-[(2S)-3-[5-chloro-6-(1H-triazol-5-ylmethoxy)-3,4-dihydro-1H-isoquinolin-2-yl]-2-hydroxy-propyl]pyrimidine-4-carboxamide] | 500 to 5000 | ≥ 5000 | 500 to 5000 | A (a Ki ratio greater than or equal to 10 fold between the Ki in the presence of SAM and the Ki in the presence of MTA) | ≥ 10000 | 1000 to 10000 | C* (an IC50 ratio of less than 3 fold between the IC50 in the HAP1 MTAP-intact cell line and the HAP1 MTAP-deleted cell line) |  | 
11 | COc1cc(C(=O)NC[C@H](O)CN2CCc3cc(OCc4ocnc4C)ccc3C2)cc(NC2CCN(C(C)=O)CC2)n1 [Compound 599, (S)-2-((1-acetylpiperidin-4-yl)amino)-N-(2-hydroxy-3-(6-((4-methyloxazol-5-yl)methoxy)-3,4-dihydroisoquinolin-2(1H)-yl)propyl)-6-methoxyisonicotinamide] | 50 to 500 |  | 50 to 500 |  | 1000 to 10000 | < 1000 | A* (an IC50 ratio greater than or equal to 10 fold between the IC50 in the HAP1 MTAP-intact cell line and the HAP1 MTAP-deleted cell line) | 500 to 5000 | A (a Ki ratio greater than or equal to 10 fold between the Ki in the presence of SAM and the Ki in the presence of MTA)
12 | O=C(NC[C@H](O)CN1CCc2cc(OCc3cnco3)ccc2C1)c1cc(NC2CCC2)ncc1F [Compound 334, (S)-2-(cyclobutylamino)-5-fluoro-N-(2-hydroxy-3-(6-(oxazol-5-ylmethoxy)-3A-dihydroisoquinolin-2(1H)-yl)propyl)isonicotinamide] | 500 to 5000 | ≥ 5000 | 50 to 500 | A (a Ki ratio greater than or equal to 10 fold between the Ki in the presence of SAM and the Ki in the presence of MTA) | < 1000 | < 1000 | C* (an IC50 ratio of less than 3 fold between the IC50 in the HAP1 MTAP-intact cell line and the HAP1 MTAP-deleted cell line) |  | 
13 | Cc1c(OCc2ccnn2C)ccc2c1CCN(C[C@@H](O)CNC(=O)c1ccnc(NC3CCCC3)c1)C2 [Compound 277, (S)-2-(cyclopentylamino)-N-(2-hydroxy-3-(5-methyl-6-((1-methyl-1H-pyrazol-5-yl)methoxy)-3N-dihydroisoquinolin-2(1H)-yl)propyl)isonicotinamide] | 500 to 5000 | ≥ 5000 | 500 to 5000 | A (a Ki ratio greater than or equal to 10 fold between the Ki in the presence of SAM and the Ki in the presence of MTA) | ≥ 10000 | ≥ 10000 | C* (an IC50 ratio of less than 3 fold between the IC50 in the HAP1 MTAP-intact cell line and the HAP1 MTAP-deleted cell line) |  | 
